Test results reported in patent US20230348487A1, “2-AMINOPYRIMIDINE COMPOUND AND PHARMACEUTICAL COMPOSITION THEREOF AND APPLICATION THEREOF” (GUANGZHOU SALUSTIER BIOSCIENCES CO., LTD., priority 2021, published 2023).

Test: In vivo pharmacokinetic properties in rats
Design: species or system SD rats
Conditions: rat
Method: Species: SD rats, SPF grade.
Number of rats: 3 in each group, male.
The animals in the oral administration group were fasted overnight (10-14 hours) before administration, and were fed 4 hours after administration. The animals were weighed before administration, and the dosage was calculated based on body weight. The drug was administered intravenously (iv, 5 mg/kg) or orally by gavage (po, 15 mg/kg). Blood was collected from jugular vein at 0.083 h, 0.25 h, 0.5 h, 1 h, 2 h, 4 h, 6 h, and 8 h after administration. About 0.20 mL of each sample was collected, anticoagulated with heparin sodium, placed on ice after collection, and centrifuged to separate plasma within 1 hour (centrifugation condition: 6800 g, 6 minutes, 2-8° C.). Plasma samples were stored in a −80° C. freezer until analysis. […] Pharmacokinetic parameters were calculated using Phoenix WinNonlin7.0 based on the blood drug concentration data at different time points, providing the pharmacokinetic parameters and their average values, and standard deviations.

C=CC(=O)Nc1cc(Nc2ncc(Cl)c(O[C@@H]3CO[C@H]4[C@@H]3OC[C@H]4OC)n2)ccc1N(C)CCN(C)C [LS 6-45]
clearance (male, SD, plasma, iv 5 mg/kg): 155 ± 2.83 mL/min/kg
AUC(0-∞) (iv 5 mg/kg): 536.99 ± 9.89 ng·h/mL
Cmax (iv 5 mg/kg): 911.33 ± 139.73 ng/mL
AUC(0-∞) (po 15 mg/kg): 333.50 ± 45.52 ng·h/mL
Cmax (po 15 mg/kg): 238.28 ± 13.68 ng/mL
F (oral availability) (po 15 mg/kg): 20.66 ± 2.83%
F (oral availability) (po 15 mg/kg, listed as LS6-45): 20.66%
